# Target: T1, Gonadotropin-releasing hormone receptor (Rattus norvegicus, UniProt P30969)
# T1 sequence (P30969 whole entry): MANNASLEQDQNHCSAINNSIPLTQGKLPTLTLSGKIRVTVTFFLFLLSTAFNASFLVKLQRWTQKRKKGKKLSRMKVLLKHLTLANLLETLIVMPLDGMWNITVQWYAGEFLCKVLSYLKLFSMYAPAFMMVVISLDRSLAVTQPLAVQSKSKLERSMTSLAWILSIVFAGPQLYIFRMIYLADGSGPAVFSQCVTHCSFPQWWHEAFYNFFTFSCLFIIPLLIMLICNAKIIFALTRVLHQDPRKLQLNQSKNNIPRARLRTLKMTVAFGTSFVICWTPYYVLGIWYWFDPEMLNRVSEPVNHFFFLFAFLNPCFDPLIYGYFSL
# Assay: Inhibition of rat gonadotropin-releasing hormone receptor
row,SMILES,IC50 [µM]
1,Cc1cc(C)cc(-c2[nH]c3ccccc3c2CCNCCCCc2ccc(NS(C)(=O)=O)nc2)c1,0.045
2,Cc1cc(C)cc(-c2[nH]c3ccccc3c2CCNCCc2ccncc2)c1,0.16
3,Cc1cc(C)cc(-c2[nH]c3ccccc3c2CCNCCCCc2ccc(=O)[nH]c2)c1,0.057
4,Cc1cc(C)cc(-c2[nH]c3ccccc3c2CCNCCCCc2ccc(O)cc2)c1,0.027
5,Cc1cc(C)cc(-c2[nH]c3ccccc3c2CCNCCc2ccccn2)c1,2.17
6,Cc1cc(C)cc(-c2[nH]c3ccccc3c2CCNCCCCc2cnc3ccccc3c2)c1,0.036
7,COc1ccc(CCCCNCCc2c(-c3cc(C)cc(C)c3)[nH]c3ccccc23)cn1,0.09
8,CC(=O)Nc1ccc(CCCCNCCc2c(-c3cc(C)cc(C)c3)[nH]c3ccccc23)cn1,0.12
9,Cc1cc(C)cc(-c2[nH]c3ccccc3c2CCNCCCCc2ccc(NS(C)(=O)=O)cc2)c1,0.007
10,Cc1cc(C)cc(-c2[nH]c3ccccc3c2CCNCc2ccncc2)c1,9
11,Cc1cc(C)cc(-c2[nH]c3ccccc3c2CCNCCCc2ccncc2)c1,0.21
12,Cc1cc(C)cc(-c2[nH]c3ccccc3c2CCNCCCCc2ccc3c(n2)NCCC3)c1,1.26
13,Cc1cc(C)cc(-c2[nH]c3ccccc3c2CCNCCCCc2ccccn2)c1,0.45
14,Cc1cc(C)cc(-c2[nH]c3ccccc3c2CCNCCCCc2cnc[nH]2)c1,0.45
15,Cc1cc(C)cc(-c2[nH]c3ccccc3c2CCNCc2ccccn2)c1,> 10

# Continued, values first:
row,IC50 [µM],SMILES
1,0.2,Cc1cc(C)cc(-c2[nH]c3ccccc3c2CCNCCCc2cccnc2)c1
2,0.04,Cc1cc(C)cc(-c2[nH]c3ccccc3c2CCNCCCCc2cccnc2)c1
3,0.041,Cc1cc(C)cc(-c2[nH]c3ccccc3c2CCNCCCCc2ccc(N)nc2)c1
4,0.2,Cc1cc(C)cc(-c2[nH]c3ccccc3c2CCNCCc2cccnc2)c1
5,4.5,Cc1cc(C)cc(-c2[nH]c3ccccc3c2CCNCc2cccnc2)c1
6,0.05,Cc1cc(C)cc(-c2[nH]c3ccccc3c2CCNCCCCCc2cccnc2)c1
7,0.016,Cc1cc(C)cc(-c2[nH]c3ccccc3c2CCNCCCCc2ccncc2)c1
8,0.15,Cc1cc(C)cc(-c2[nH]c3ccccc3c2CCNCCCCCc2ccncc2)c1
9,0.27,Cc1cc(C)cc(-c2[nH]c3ccccc3c2CCNCCCCc2cncnc2)c1

# Target: T2, Gonadotropin-releasing hormone receptor (Homo sapiens, UniProt P30968)
# T2 sequence (P30968 whole entry): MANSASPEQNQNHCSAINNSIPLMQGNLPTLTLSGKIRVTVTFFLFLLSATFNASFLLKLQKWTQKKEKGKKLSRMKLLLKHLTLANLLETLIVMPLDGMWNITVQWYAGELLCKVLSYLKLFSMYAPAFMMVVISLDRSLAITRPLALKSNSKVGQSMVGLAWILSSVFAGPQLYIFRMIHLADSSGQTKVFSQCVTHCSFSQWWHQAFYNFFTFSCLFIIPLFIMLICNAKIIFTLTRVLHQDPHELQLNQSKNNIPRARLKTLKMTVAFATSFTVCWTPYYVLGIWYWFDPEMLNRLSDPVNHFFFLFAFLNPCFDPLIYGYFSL
# Assay: Inhibitory activity evaluated against human Gonadotropin-releasing hormone receptor
row,IC50 [µM],SMILES
1,0.357,Cc1cc(C)cc(-c2[nH]c3ccccc3c2CCNCCCCc2ccc(O)cc2)c1
2,0.17,Cc1cc(C)cc(-c2[nH]c3ccccc3c2CCNCCCCc2ccc(NS(C)(=O)=O)cc2)c1

# Source: ChEMBL document CHEMBL1134029, “Heterocyclic derivatives of 2-(3,5-dimethylphenyl)tryptamine as GnRH receptor antagonists” (Bioorg Med Chem Lett, 2001)
